Results: PMC5428521, “Identification of a Novel, Small Molecule Partial Agonist for the Cyclic AMP Sensor, EPAC1” (Scientific Reports, 2017)
Where “and” joins values, the source holds several entries; their conditions need not be identical. Equal entries are not always repeated.

Experiments:
[1] = molecular target: T1, EPAC2-CNB (Mus musculus, UniProt Q9EQZ6); test: Ligand observed NMR (1D and waterLOGSY) with EPAC2-CNB; format: binding; settings: compound 50 µM, protein 2.5 µM
T1 construct: EPAC2-CNB (amino acids 304–453 of EPAC2); made in house; host or cells: BL-21 Escherichia coli (pGEX-6P-1)
T1 sequence (Q9EQZ6 304-453 isoform Q9EQZ6-3): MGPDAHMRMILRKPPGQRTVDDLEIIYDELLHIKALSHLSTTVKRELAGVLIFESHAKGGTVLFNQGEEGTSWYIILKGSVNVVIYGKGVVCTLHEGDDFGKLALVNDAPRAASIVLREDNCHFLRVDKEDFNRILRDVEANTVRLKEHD
Text: Given that I942 seems to exert selective agonist properties against EPAC1, but not EPAC2, we next sought to validate whether our isolated ligands can interact with EPAC1 and EPAC2. Ligand observed nuclear magnetic resonance (NMR) is a valuable tool for the identification and validation of small molecule ligands. We therefore used one dimensional proton (1D) and water-ligand observed by gradient spectroscopy (waterLOGSY) NMR to confirm the ability of I942 and I178 to bind to the purified CNBs of EPAC1 and EPAC2, in comparison with the commercially available EPAC1 antagonist, ESI-09[32]. In order to assess ligand/CNB interaction, 1D and waterLOGSY experiments were performed on each compound (50 µM) in the presence or absence of 2.5 µM EPAC-CNB. In the absence of protein, each test compound produced a well-resolved 1D spectrum and a region of each spectrum was chosen to display distinctive spectral peaks originating from the ligand (Fig. 6). In the absence of protein, the corresponding waterLOGSY peaks were small, or absent, due to the negligible signal produced by saturation transfer from water to the freely tumbling small molecule. […] In waterLOGSY spectra, protein-mediated saturation transfer can only occur if the protein-ligand complex has a substantial lifetime. […]
(A) One dimensional proton (1D) and waterLOGSY (WL) spectra were performed on samples containing hit compound I942 (50 µM) in the absence and presence of EPAC1-CNB, EPAC2-CNB or GST alone, as indicated (2.5 µM). […] Interaction between compound and protein was assessed through comparison of the compound alone and protein-compound sample spectra. […]
All NMR spectra were recorded on a Bruker AVANCE IIIHD 600 spectrometer equipped with a TCI cryoprobe at 285 K. Test compounds were prepared in deuterated DMSO and diluted to given experimental concentrations in NMR buffer (20 mM Na2PO4, pH 7.0, 50 mM NaCl, 0.1% (w/v) NaN3, 5% (v/v) D2O) with a final DMSO concentration below 0.1%. […] One dimensional proton (1D) and waterLOGSY spectra were recorded for all compounds tested, using pulse sequences as previously described. […]

[2] = molecular target: T2, EPAC1 (amino acids 149–881) (Homo sapiens, UniProt O95398); test: In vitro GEF activity assay (MANT-GDP dissociation from Rap1), EPAC1; format: biochemical; settings: for AC50: AC50, GEF Activation (no cAMP), from kobs vs concentration
T2 construct: recombinant EPAC1 (amino acids 149–881); made in house; host or cells: bacteria
T2 sequence (O95398 149-881 isoform O95398-3): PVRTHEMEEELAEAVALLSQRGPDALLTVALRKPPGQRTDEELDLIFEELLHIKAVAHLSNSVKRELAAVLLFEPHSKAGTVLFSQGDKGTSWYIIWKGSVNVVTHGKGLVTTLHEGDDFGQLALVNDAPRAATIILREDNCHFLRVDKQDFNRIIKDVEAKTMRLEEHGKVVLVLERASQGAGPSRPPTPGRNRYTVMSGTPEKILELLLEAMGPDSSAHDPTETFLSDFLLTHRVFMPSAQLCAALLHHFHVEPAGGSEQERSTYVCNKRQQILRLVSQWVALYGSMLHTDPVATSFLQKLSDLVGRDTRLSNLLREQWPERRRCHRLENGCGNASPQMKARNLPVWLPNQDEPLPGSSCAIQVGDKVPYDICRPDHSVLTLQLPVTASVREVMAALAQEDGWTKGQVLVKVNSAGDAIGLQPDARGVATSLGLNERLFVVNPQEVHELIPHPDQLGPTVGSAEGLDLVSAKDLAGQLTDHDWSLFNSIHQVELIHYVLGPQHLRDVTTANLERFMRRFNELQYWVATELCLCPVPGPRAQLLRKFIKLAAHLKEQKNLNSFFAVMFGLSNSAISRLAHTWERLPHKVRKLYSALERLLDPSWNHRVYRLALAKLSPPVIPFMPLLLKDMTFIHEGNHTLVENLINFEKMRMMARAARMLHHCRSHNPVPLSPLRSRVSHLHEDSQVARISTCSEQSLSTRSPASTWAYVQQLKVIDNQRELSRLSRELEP
Experimental: For this, we used the well-characterised EPAC GEF activity assay. The assay is based on the EPAC-stimulated dissociation of fluorescent MANT-GDP from recombinant Rap1 in the presence of excess non-fluorescent nucleotide.
The data are fitted as single exponential decay with off-set (red lines) to obtain the rate constants kobs, as shown in (b).
EPAC1 and EPAC2 in vitro GEF activities were calculated as previously described. Briefly, recombinant EPAC1 (amino acids 149–881) or EPAC2 (amino acids 280–993) were incubated at 100 nM with recombinant Rap1 (200 nM) preloaded with the fluorescent GDP analogue 2′/3′-O-(N-Methylanthraniloyl)guanosine 5-diphosphate (MANT-GDP) in the presence of 20 μM GDP and then the fluorescence intensity was measured at 360/450 nm (ex/em) over time. […] AC50 or IC50 values were determined from the plots of kobs against the concentration of the agonist and antagonist, respectively Table 1.

What does the source list for Cc1ccc(S(=O)(=O)NC(=O)COc2ccc3ccccc3c2)c(C)c1 [I942, N-(2,4-dimethylbenzenesulfonyl)-2-(naphthalen-2-yloxy)acetamide]?
NMR interaction [1]: Strong, Specific Interaction; IC50 [2]: ~300 µM; AC50 ([2]; absence of cAMP): 50 µM and ~50 µM; maximal induced activity, fold lower than that of cAMP ([2]; absence of cAMP): around 10 fold

For O=C(COc1ccc2ccccc2c1)NS(=O)(=O)c1ccccc1 [I178, N-(benzenesulfonyl)-2-(naphthalen-2-yloxy)acetamide], which NMR interaction [1] is on record?
The NMR interaction was “Weak, specific interaction”.

And the IC50 [2]?
The IC50 was roughly 500 µM.

What about the AC50 ([2]; absence of cAMP) of the same molecule?
The AC50 was 200 µM and ~200 µM.
